The values below come from patent US12421225B2, “Heteroaromatic amide derivative and medicament containing the same” (KAKEN PHARMACEUTICAL CO., LTD., priority 2018, dated 2025).

SMILES strings stand for the structures.

human Nav1.7, sequence (Q15858 whole entry): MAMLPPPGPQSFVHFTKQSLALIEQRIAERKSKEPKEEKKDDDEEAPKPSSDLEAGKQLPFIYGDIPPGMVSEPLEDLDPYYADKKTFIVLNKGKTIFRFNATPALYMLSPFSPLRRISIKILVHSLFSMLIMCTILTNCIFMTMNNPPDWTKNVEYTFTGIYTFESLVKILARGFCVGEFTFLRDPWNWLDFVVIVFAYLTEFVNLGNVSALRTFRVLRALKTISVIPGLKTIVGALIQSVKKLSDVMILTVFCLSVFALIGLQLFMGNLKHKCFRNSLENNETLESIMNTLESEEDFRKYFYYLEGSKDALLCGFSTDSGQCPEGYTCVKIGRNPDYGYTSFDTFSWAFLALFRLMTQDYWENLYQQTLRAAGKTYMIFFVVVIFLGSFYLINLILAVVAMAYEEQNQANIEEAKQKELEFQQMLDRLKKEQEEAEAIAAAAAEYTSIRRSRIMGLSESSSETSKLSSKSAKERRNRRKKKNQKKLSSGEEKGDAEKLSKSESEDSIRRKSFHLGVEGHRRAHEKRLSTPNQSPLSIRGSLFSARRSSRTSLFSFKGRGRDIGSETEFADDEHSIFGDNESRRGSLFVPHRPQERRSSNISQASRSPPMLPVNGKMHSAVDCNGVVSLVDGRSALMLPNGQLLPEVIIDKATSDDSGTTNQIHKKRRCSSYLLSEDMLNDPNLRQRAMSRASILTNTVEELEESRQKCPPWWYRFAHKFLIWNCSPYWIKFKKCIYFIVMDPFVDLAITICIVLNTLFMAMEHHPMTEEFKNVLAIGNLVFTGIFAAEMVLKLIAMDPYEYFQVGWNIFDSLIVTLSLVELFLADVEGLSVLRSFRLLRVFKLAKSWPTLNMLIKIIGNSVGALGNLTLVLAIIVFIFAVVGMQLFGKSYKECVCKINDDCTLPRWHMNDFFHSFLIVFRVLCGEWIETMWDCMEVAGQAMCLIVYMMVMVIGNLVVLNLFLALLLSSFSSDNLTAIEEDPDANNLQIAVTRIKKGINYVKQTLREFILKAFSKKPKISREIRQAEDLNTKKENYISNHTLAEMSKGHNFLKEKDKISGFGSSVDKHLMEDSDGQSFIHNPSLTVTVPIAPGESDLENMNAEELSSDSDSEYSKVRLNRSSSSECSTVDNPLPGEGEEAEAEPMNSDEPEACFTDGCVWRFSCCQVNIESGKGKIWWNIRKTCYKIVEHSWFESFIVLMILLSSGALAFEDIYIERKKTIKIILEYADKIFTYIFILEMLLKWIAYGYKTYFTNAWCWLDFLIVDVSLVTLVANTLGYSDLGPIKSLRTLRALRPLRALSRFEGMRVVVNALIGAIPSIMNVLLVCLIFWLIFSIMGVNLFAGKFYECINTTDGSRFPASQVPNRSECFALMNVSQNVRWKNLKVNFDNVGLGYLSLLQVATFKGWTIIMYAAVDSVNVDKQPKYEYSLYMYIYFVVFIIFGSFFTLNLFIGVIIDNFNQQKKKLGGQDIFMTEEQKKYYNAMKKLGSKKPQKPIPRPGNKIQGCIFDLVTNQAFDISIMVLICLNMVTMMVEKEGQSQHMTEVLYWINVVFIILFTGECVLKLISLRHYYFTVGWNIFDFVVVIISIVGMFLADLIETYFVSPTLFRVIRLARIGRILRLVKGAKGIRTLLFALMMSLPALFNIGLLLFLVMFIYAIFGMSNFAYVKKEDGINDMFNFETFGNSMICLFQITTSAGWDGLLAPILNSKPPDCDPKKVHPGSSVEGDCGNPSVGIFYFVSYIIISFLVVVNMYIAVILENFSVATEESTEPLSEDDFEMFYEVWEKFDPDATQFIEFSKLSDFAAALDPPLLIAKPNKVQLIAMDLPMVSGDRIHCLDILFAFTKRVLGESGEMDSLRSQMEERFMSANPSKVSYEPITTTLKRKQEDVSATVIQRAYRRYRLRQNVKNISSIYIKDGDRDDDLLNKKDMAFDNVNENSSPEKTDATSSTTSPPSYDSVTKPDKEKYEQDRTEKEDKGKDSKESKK
human Nav1.7, sequence (Q07699 19-218 partner): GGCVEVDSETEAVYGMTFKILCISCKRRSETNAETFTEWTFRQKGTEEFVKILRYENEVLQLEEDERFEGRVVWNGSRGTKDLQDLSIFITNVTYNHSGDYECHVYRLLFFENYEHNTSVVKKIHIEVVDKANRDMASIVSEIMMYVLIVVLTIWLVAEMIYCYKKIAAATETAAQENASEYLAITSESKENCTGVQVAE

The target in this assay is human Nav1.7 (Homo sapiens (Human), UniProt Q15858). Nature of the assay: Human Nav1.7 inhibitory activity evaluation (automated patch clamp QPatch16X, HEK293A cells stably expressing human Nav1.7 and human Navβ1). The assay is classed as cell-based. As to conditions: human Nav1.7, automated patch clamp. How it is done:
Test Example 1: Human Nav1.7 Inhibitory Activity Evaluation
A cell line in which human Nav1.7 and human Navβ1 subunits were stably expressed in HEK293A cells was used. Dulbecco's Modified Eagle Medium (DMEM) supplemeted with 10% fetal bovine serum, 600 μg/ml geneticin, and 2 μg/ml blasticidin S were used as culture medium under the conditions of 37° C. and 5% CO2 in T175 flasks to carry out culturing. When 60-80% confluence was reached, the cells were detached and a cell suspension of about 0.5-5.0×10^6 cells/mL was prepared. The amount of current through human Nav1.7 was recorded using a fully automatic patch clamp device QPatch16X (Sophion Biosciences) at room temperature. As the extracellular solution, the solution of 145 mM NaCl, 4 mM KCl, 1 mM MgCl2, 2 mM CaCl2, 10 mM Glucose, 10 mM 4-(2-hydroxyethyl)-1-piperazine ethanesulfonic acid (HEPES) at pH 7.4 was used. As the intracellular solution, the solution of 135 mM CsF, ⅕ mM glycol ether diaminetetraacetic acid (EGTA)/CsOH, 10 mM HEPES, 10 mM NaCl at pH 7.3 was used. The test compounds were dissolved in dimethyl sulfoxide (DMSO) and diluted with the extracellular solution to attain the DMSO concentration of 0.1% at the time of assay.
The current response was obtained at a sampling frequency of 25 kHz, and noise was removed with a 3 kHz low-pass filter. The holding potential was −100 mV. Correction of the leakage current was carried out by applying a step pulse of −120 mV before the test pulse. In order to investigate inhibitory action of the test compound, the following test pulse was given: Namely, after depolarizing pulse of −10 mV was applied for 50 milliseconds, it was fixed at −120 mV for 500 milliseconds; a potential at which about 30-40% of the channel was inactivated was maintained for 15 seconds, then fixed again at −120 mV for 100 milliseconds, and finally a −10 mV depolarization pulse was given for 50 milliseconds. Test pulses were given before and after the test compound addition.
The inhibitory activity of the test compound was determined based on the amount of inward current generated by the second depolarization pulse, and the 50% inhibitory concentration (IC50) was calculated from the concentration-response curve.
Take `O=C(N[C@H]1COc2ccc(C(F)(F)F)cc2C1)c1nn2c(c1-c1ccn[nH]1)OCC2` [Example 249]: the IC50 is under 10 µM.

As for `CC1(C)Cn2nc(C(=O)N[C@H]3COc4ccc(C(F)(F)F)cc4C3)c(-c3ccn[nH]3)c2O1` [Example 250], the IC50 was under 10 µM.

In the case of `O=C(N[C@H]1COc2ccc(C(F)(F)F)cc2C1)c1nn2c(c1-c1ccn[nH]1)COCC2` [Example 259, (R)-3-(1H-pyrazol-5-yl)-N-(6-(trifluoromethyl)chroman-3-yl)-6,7-dihydro-4H-pyrazolo[5,1-c][1,4]oxazine-2-carboxamide], the IC50 is under 1 µM.

For `O=C(NC1COc2ccc(C(F)(F)F)cc2C1)c1cc2n(n1)CCN(CCC1CC1)C2` (stereo not drawn) [Example 264], the IC50 was under 1 µM.

Compound `N#Cc1ccc2c(c1)C[C@@H](NC(=O)c1cc3n(n1)CCN(CCc1ccc(F)cc1)C3)CO2` [Example 269] came in with an IC50 of under 1 µM.

With `CC(C)CN1CCn2nc(C(=O)N[C@H]3COc4ccc(C#N)cc4C3)cc2C1` [Example 270], the IC50 was under 10 µM.

As for `N#Cc1ccc2c(c1)C[C@@H](NC(=O)c1cc3n(n1)CCN(C1CCCC1)C3)CO2` [Example 271], the IC50 was under 10 µM.

Turning to `O=C(N[C@H]1COc2ccc(Cl)cc2C1)c1cc2n(n1)CCN(CCOc1ccccn1)C2` [Example 274], the IC50 is under 10 µM.

Consider `COc1cc(C2(N3CCn4nc(C(=O)N[C@H]5COc6ccc(C#N)cc6C5)cc4C3)CC2)ccn1` [Example 286], for which the IC50 is under 10 µM.

As to `C=Cc1cccc2c1CC(NC(=O)c1cn3c(n1)CCC(C(F)(F)F)C3)CO2` (stereo not drawn) [Example 293], the IC50 was under 10 µM.

`CCOCc1cccc2c1CC(NC(=O)c1cn3c(n1)CCC(C(F)(F)F)C3)CO2` (stereo not drawn) [Example 296] showed an IC50 of under 10 µM.

`N#CCc1cccc2c1CC(NC(=O)c1cn3c(n1)CCC(C(F)(F)F)C3)CO2` (stereo not drawn) [Example 297] registered an IC50 of under 10 µM.

`O=C(N[C@H]1COc2ccccc2C1)c1nc2n(c1-c1ccccc1)CC(C(F)(F)F)CC2` (stereo partly drawn) [Example 299] had an IC50 of under 1 µM.

As for `N#Cc1c(C(=O)N[C@H]2COc3ccccc3C2)nc2n1CC(C(F)(F)F)CC2` (stereo partly drawn) [Example 300], the IC50 is under 10 µM.

Regarding `O=C(N[C@H]1COc2ccccc2C1)c1nc2n(c1CCCO)CC(C(F)(F)F)CC2` (stereo partly drawn) [Example 301], the IC50 is under 10 µM.

The compound `C=Cc1c(C(=O)N[C@H]2COc3ccccc3C2)nc2n1CC(C(F)(F)F)CC2` (stereo partly drawn) [Example 302] gave an IC50 of under 10 µM.

`O=C(N[C@H]1COc2ccc(CCOC(F)(F)F)cc2C1)c1nc2n(c1-c1ccccn1)CCCC2` [Example 306] showed an IC50 of under 1 µM.

The compound `O=C(c1cn2c(n1)CCC(c1cccc(N3CC(O)C3)n1)C2)N1CCC(c2ccccc2)C1` (stereo not drawn) [Example 309] registered an IC50 of under 10 µM.

The compound `O=C(c1cn2c(n1)CCC(c1cccc(N3CCCC3)n1)C2)N1CCC(c2ccccc2)C1` (stereo not drawn) [Example 310] gave an IC50 of under 10 µM.

Take `O=C(N[C@H]1COc2ccccc2C1)c1cn2c(n1)CCC(c1cccc(C(F)(F)F)n1)C2` (stereo partly drawn) [Example 314]: the IC50 is under 1 µM.

In turn, `O=C(c1cn2c(n1)CCC(c1cccnc1C(F)(F)F)C2)N1CCCC1c1ccccc1` (stereo not drawn) [Example 315] had an IC50 of under 10 µM.

`CCC(F)(CC)C1CCc2nc(C(=O)N[C@H]3COc4ccccc4C3)cn2C1` (stereo partly drawn) [Example 319] came in with an IC50 of under 10 µM.

The compound `CC(C)(F)CCC1CCc2nc(C(=O)N[C@H]3COc4ccccc4C3)cn2C1` (stereo partly drawn) [Example 320] returned an IC50 of under 10 µM.

On to `CN(C1CCc2nc(C(=O)N[C@H]3COc4ccccc4C3)cn2C1)S(=O)(=O)c1ccccc1` (stereo partly drawn) [Example 322], for which the IC50 was under 10 µM.

`CN1Cc2nc(C(=O)NCCc3c[nH]c4ccccc34)cn2CC1c1ccccc1` (stereo not drawn) [Example 323] showed an IC50 of under 10 µM.

Compound `CN1Cc2nc(C(=O)N3CCC(F)(c4ccccc4Cl)C3)cn2CC1c1ccccc1` (stereo not drawn) [Example 329] gave an IC50 of under 1 µM.

In turn, `CN1Cc2nc(C(=O)N3CC(Oc4cccc(C(F)(F)F)n4)C3)cn2CC1c1ccccc1` (stereo not drawn) [Example 330] returned an IC50 of under 10 µM.

Compound `CN1Cc2nc(C(=O)N3CCC(Oc4cccc(C(F)(F)F)n4)C3)cn2CC1c1cccc(OC(F)(F)F)c1` (stereo not drawn) [Example 335] returned an IC50 of under 10 µM.

For `O=C(N[C@H]1COc2ccccc2C1)c1nc2n(c1-c1ccccc1)CCN(C(=O)C(F)(F)F)C2` [Example 339], the IC50 was under 10 µM.

Compound `N#Cc1ccc2c(c1)C[C@@H](NC(=O)c1nc3n(c1-c1cccc(Cl)n1)CCOC3)CO2` [Example 341] displayed an IC50 of under 1 µM.

The compound `O=C(N[C@H]1COc2ccc(C3CC3)cc2C1)c1nc2n(c1-c1ccccn1)CCOC2` [Example 342] gave an IC50 of under 1 µM.

In turn, `O=C(N[C@H]1COc2ccc(C(F)(F)F)cc2C1)c1nc2n(c1-c1cccnc1OCC(F)(F)F)CCOC2` [Example 346] showed an IC50 of under 10 µM.

As to `O=C(NC1COc2ccccc2C1)c1nn2c(c1-c1ccccc1)CCCC2` (stereo not drawn) [Example 347], the IC50 is under 10 µM.

For the compound `COc1cccc(-c2c(C(=O)N[C@H]3COc4ccc(Cl)cc4C3)nn3c2CCCC3)n1` [Example 348], the IC50 was under 1 µM.

`O=C(NC1COc2c(F)cc(F)cc2C1)c1cc2n(n1)CCC(c1ccccc1)O2` (stereo not drawn) [Example 354] had an IC50 of under 10 µM.

The compound `O=C(NC1COc2ccc(Cl)cc2C1)c1cc2n(n1)CCC(c1ccccc1)O2` (stereo not drawn) [Example 355] came in with an IC50 of under 1 µM.

Take `O=C(NC1COc2ccc3ncccc3c2C1)c1cc2n(n1)CCC(c1ccccc1F)O2` (stereo not drawn) [Example 363]: the IC50 was under 10 µM.

On to `CCOC(C)c1ccc2c(c1)C[C@@H](NC(=O)c1cc3n(n1)CCC(c1ccccc1F)O3)CO2` (stereo partly drawn) [Example 365], for which the IC50 was under 10 µM.

The compound `COc1ncccc1C1CCn2nc(C(=O)N[C@H]3COc4ccc(Cl)cc4C3)cc2O1` (stereo partly drawn) [Example 367] yielded an IC50 of under 1 µM.

Take `O=C(N[C@H]1COc2ccc(CN3CCOCC3)cc2C1)c1cc2n(n1)CCC(c1ccccc1F)O2` (stereo partly drawn) [Example 368]: the concentration for half-maximal inhibition (IC50) was under 10 µM.

In the case of `CN(C)CCOCc1ccc2c(c1)C[C@@H](NC(=O)c1cc3n(n1)CCC(c1ccccc1F)O3)CO2` (stereo partly drawn) [Example 369], the IC50 was under 10 µM.

For the compound `CN(C)C(=O)COCc1ccc2c(c1)C[C@@H](NC(=O)c1cc3n(n1)CCC(c1ccccc1F)O3)CO2` (stereo partly drawn) [Example 370], the IC50 is under 10 µM.

`COc1ccc(C2CCn3nc(C(=O)N[C@H]4COc5ccc(Cl)cc5C4)cc3O2)cn1` (stereo partly drawn) [Example 371]: the IC50 is under 1 µM.

For the compound `CCOc1ncccc1C1CCn2nc(C(=O)N[C@H]3COc4ccc(C#N)cc4C3)cc2O1` (stereo partly drawn) [Example 372], the IC50 was under 1 µM.

Take `O=C(N[C@H]1COc2ccc(-c3ccncc3)cc2C1)c1cc2n(n1)CCC(C(F)(F)F)O2` (stereo partly drawn) [Example 376]: the IC50 was under 10 µM.

In turn, `COc1ncccc1-c1ccc2c(c1)C[C@@H](NC(=O)c1cc3n(n1)CCC(C(F)(F)F)O3)CO2` (stereo partly drawn) [Example 377] yielded an IC50 of under 10 µM.

`C=C1CCn2nc(C(=O)N[C@H]3COc4ccc(Cl)cc4C3)cc2O1` [Example 379] came in with an IC50 of under 1 µM.

`O=C(N[C@H]1COc2ccc(-c3cnc(N4CCC4)nc3)cc2C1)c1cc2n(n1)CCC(C(F)(F)F)O2` (stereo partly drawn) [Example 380] came in with an IC50 of under 10 µM.

`O=C(N[C@H]1COc2ccc(Cl)cc2C1)c1cc2n(n1)CCC(CF)O2` (stereo partly drawn) [Example 381] registered an IC50 of under 10 µM.

As to `N#Cc1ccc2c(c1)C[C@@H](NC(=O)c1cc3n(n1)CCC(Cc1ccc(F)cc1)O3)CO2` (stereo partly drawn) [Example 384], the IC50 is under 1 µM.

The compound `CC1Oc2cc(C(=O)N[C@H]3COc4ccc(Cl)cc4C3)nn2CC1(F)F` (stereo partly drawn) [Example 385] registered an IC50 of under 10 µM.

`O=C(N[C@H]1COc2ccc(Cl)cc2C1)c1cc2n(n1)CCC(C1CC1)O2` (stereo partly drawn) [Example 387] gave an IC50 of under 1 µM.

As for `N#Cc1ccc2c(c1)C[C@@H](NC(=O)c1cc3n(n1)CCC(C1CCC1)O3)CO2` (stereo partly drawn) [Example 388], the IC50 is under 1 µM.

In the case of `N#Cc1ccc2c(c1)C[C@@H](NC(=O)c1cc3n(n1)CCC(C#Cc1ccccc1)O3)CO2` (stereo partly drawn) [Example 390], the IC50 was under 10 µM.

In the case of `CC(C)C1CCn2nc(C(=O)N[C@H]3COc4ccc(C#N)cc4C3)cc2O1` (stereo partly drawn) [Example 393], the IC50 was under 10 µM.

As for `COC(C)(C)C#CC1CCn2nc(C(=O)N[C@H]3COc4ccc(C#N)cc4C3)cc2O1` (stereo partly drawn) [Example 394], the IC50 is under 10 µM.

For `O=C(N[C@H]1COc2ccc(Cl)cc2C1)c1cc2n(n1)CCC(CC1CCOCC1)O2` (stereo partly drawn) [Example 395], the IC50 is under 1 µM.

Regarding `C=Cc1ccc2c(c1)C[C@@H](NC(=O)c1cc3n(n1)CCC(C(F)(F)F)O3)CO2` (stereo partly drawn) [Example 396], the IC50 is under 1 µM.

`O=C(N[C@H]1COc2ccc(CCOCC(F)(F)F)cc2C1)c1cc2n(n1)CCC(C(F)(F)F)O2` (stereo partly drawn) [Example 397] showed an IC50 of under 1 µM.

`COC(C)(C)C#Cc1ccc2c(c1)C[C@@H](NC(=O)c1cc3n(n1)CCC(C(F)(F)F)O3)CO2` (stereo partly drawn) [Example 398] had an IC50 of under 10 µM.
